# Laboratory results from patent US7964613B2 (Asahi Kasei Pharma Corporation, priority 2007, dated 2011).
# System: rabbit normal intraocular pressure
# Experiment: Intraocular pressure reducing action
# Type: in vivo, Japanese white rabbit
# Conditions: Oryctolagus cuniculus, topical; 3 mM aqueous solution, 50 μl to the left eye; max IOP reduction (2, 4, 6 hours) / value immediately before administration; read-out: intraocular pressure reducing degree
# Description: A Japanese white rabbit having a body weight of about 2 kg was placed in a positioner and naturalized for one week before the experiment. An opthalmologic local anesthesant (Benoxil) was administered to both eyes, and then intraocular pressure was measured by using a tonometer (Classic 30, Solan). A 3 mM aqueous solution of a test compound was administered in a volume of 50 μl to the left eye, and the right eye was not treated (control eye). The intraocular pressure values were measured for the left and right eyes immediately before, and 2, 4 and 6 hours after the administration of the aqueous solution of the test compound, and the difference of the measured values for the left and right eyes was considered an intraocular pressure reduction value of the test medicament at each measurement time. The largest difference of the values for the left and right eyes among the measured values at the measurement times (after 2, 4 and 6 hours) was considered the maximum intraocular pressure reduction value (max ? IOP) of each test medicament. The intraocular pressure reducing degree representing the intraocular pressure reducing action of each test medicament was calculated according to the following formula. Since rabbits show significant daily variation of intraocular pressure, daily variation is added when change of intraocular pressure is measured over time, and the intraocular pressure reducing action may be overestimated. Therefore, we used this calculation method of intraocular pressure reduction value in order to minimize the influence of the variation. Intraocular pressure reducing degree(%)=(max ? IOP/Intraocular pressure value immediately before administration)×100
row,SMILES,inhibition in vivo at 3000 µM [%]
1,"N[C@H]1CCN(S(=O)(=O)c2cccc3cncc(Br)c23)C1 [Example 1-1, (S)-3-Amino-1-(4-bromo-5-isoquinolinesulfonyl)pyrrolidine]",≥ 20
2,"N[C@@H]1CCN(S(=O)(=O)c2cccc3cncc(Br)c23)C1 [Example 1-2, (R)-3-Amino-1-(4-bromo-5-isoquinolinesulfonyl)pyrrolidine]",≥ 20
3,O=S(=O)(c1cccc2cncc(Br)c12)N1CC[C@H](NCc2ccoc2)C1 [Example 1-14],5 to 10
4,Cc1nc(CN[C@H]2CCN(S(=O)(=O)c3cccc4cncc(Br)c34)C2)c[nH]1 [Example 1-19],5 to 10
5,Cn1cccc1CN[C@H]1CCN(S(=O)(=O)c2cccc3cncc(Br)c23)C1 [Example 1-20],10 to 20
6,NCCN[C@H]1CCN(S(=O)(=O)c2cccc3cncc(Br)c23)C1 [Example 1-31],10 to 20
7,"N[C@H]1CCN(S(=O)(=O)c2cccc3c(O)ncc(Br)c23)C1 [Example 7-1, (S)-3-Amino-1-(1-hydroxy-4-bromo-5-isoquinolinesulfonyl)pyrrolidine]",≥ 20
8,"COCC(COC)OCC(=O)N[C@H]1CCN(S(=O)(=O)c2cccc3cncc(Cl)c23)C1 [Example 108, (S)-3-[2-(1,3-Dimethoxypropan-2-yloxy)acetyl]amino-1-(4-chloro-5-isoquinolinesulfonyl)pyrrolidine]",≥ 20
9,"CN(C)CCOCC(=O)N[C@H]1CCN(S(=O)(=O)c2cccc3cncc(Cl)c23)C1 [Example 111, (S)-3-[2-[2-(Dimethylamino)ethoxy]acetyl]amino-1-(4-chloro-5-isoquinolinesulfonyl)pyrrolidine]",5 to 10
10,"COCC(=O)N[C@H]1CCN(S(=O)(=O)c2cccc3cncc(F)c23)C1 [Example 115, (S)-3-(2-Methoxyacetyl)amino-1-(4-fluoro-5-isoquinolinesulfonyl)pyrrolidine]",5 to 10
11,"COCC(=O)N(C)[C@H]1CCN(S(=O)(=O)c2cccc3cncc(F)c23)C1 [Example 116, (S)-3-[N-(2-Methoxyacetyl)-N-methyl]amino-1-(4-fluoro-5-isoquinolinesulfonyl)pyrrolidine]",10 to 20
12,"CN(C)CC(=O)N[C@H]1CCN(S(=O)(=O)c2cccc3cncc(F)c23)C1 [Example 117, (S)-3-[(2-Dimethylamino)acetyl]amino-1-(4-fluoro-5-isoquinolinesulfonyl)pyrrolidine]",5 to 10
13,"CN(C)CC(=O)N(C)[C@H]1CCN(S(=O)(=O)c2cccc3cncc(F)c23)C1 [Example 118, (S)-3-[N-(2-Dimethylamino)acetyl-N-methyl]amino-1-(4-fluoro-5-isoquinolinesulfonyl)pyrrolidine]",5 to 10

# Biological target: T1, human ROCK1 (Homo sapiens, UniProt Q13464)
# T1 construct: His tag (N); host or cells: insect cells (Sf9)
# T1 sequence (Q13464 1-727): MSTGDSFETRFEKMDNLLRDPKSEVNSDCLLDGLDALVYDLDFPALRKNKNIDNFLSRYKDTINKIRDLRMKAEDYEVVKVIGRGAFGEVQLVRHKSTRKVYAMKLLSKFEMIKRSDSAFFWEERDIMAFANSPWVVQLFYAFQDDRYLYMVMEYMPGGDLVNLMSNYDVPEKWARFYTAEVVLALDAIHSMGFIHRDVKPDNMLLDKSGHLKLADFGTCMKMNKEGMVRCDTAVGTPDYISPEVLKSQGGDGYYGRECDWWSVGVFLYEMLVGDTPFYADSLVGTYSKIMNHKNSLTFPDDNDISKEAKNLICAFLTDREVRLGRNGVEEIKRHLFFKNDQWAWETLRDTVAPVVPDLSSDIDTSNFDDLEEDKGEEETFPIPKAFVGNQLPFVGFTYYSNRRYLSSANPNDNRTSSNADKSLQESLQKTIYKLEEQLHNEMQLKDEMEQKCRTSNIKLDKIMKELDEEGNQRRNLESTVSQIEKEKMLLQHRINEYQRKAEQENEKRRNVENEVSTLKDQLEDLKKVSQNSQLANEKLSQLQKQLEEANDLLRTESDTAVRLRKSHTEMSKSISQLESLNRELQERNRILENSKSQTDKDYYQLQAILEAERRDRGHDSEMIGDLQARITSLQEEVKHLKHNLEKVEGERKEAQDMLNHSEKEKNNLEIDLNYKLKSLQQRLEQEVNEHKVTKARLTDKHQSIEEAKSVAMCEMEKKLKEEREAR
# Experiment: Measurement of Rho kinase inhibitory activity (ELISA of MBS phosphorylation)
# Type: biochemical
# Conditions: human ROCK1, MBS substrate, 100 μM ATP, 30° C. for 10 minutes
# Description: In this test, human ROCK1 was used as Rho kinase, MBS (myosin binding subunit, subunit constituting myosin phosphatase) was used as the substrate of Rho kinase, and an anti-phosphorylated MBS antibody was used for detection of phosphorylation. The activity for inhibiting Rho kinase was determined by measuring phosphorylation of MBS by the Rho kinase by ELISA in the presence of an appropriately diluted test compound. As the Rho kinase used, a recombinant protein (N-terminal His-tagged recombinant human ROCK1 residues (1Met-[…])) was used, which was produced in insect cells (Sf9) using a sequence (1-727), of which activity was confirmed in the paper of Ishizaki et al. (Ishizaki, T. et al., FEBS Letters, 404, pp 118-124, 1997), based on the sequence of human ROCK1 (p 160 ROCK) described in the report of Ishizaki et al. (Ishizaki, T. et al., EMBO J., 15, pp 1885-1893, 1996). Further, as the MBS protein and anti-phosphorylated MBS antibody, those prepared according to the method described in the paper of Ito et al. (Ito, K et al., J. Physiol., 546, pp 823-836, 2003) were used.
# A solution of MBS (Asahi Kasei Pharma, lot No, 040814n7-10) diluted with PBS to an appropriate concentration was added to an ELISA plate (Maxisorp, Nunc), and left, stand overnight at 4° C., and then the wells were washed twice with a washing solution (WB, washing buffer, 0.1% Tween 20/PBS). To the wells were added 1% bovine serum albumin (Sigma)/PBS, and left for 1 to 3 hours, and then the wells were washed 5 times with WB to prepare a substrate-immobilized plate. Onto this plate, a reaction mixture (5 mM MgSO4/0.1 M NaCl/20 mM HEPES (pH 7.5)/100 μM ATP/5 mM DTT), a test compound, and appropriately diluted human ROCK1 (Asahi Kasei Pharma, lot No, 030126.120-22) were added, and then reacted at 30° C. for 10 minutes. Then, 0.2 M EDTA (pH 7.5) was added to terminate the reaction, and the wells were washed 5 times with WB. A rabbit anti-phosphorylated MBS antibody solution (Asahi Kasei Pharma, lot No, 122676431) diluted 10,000 times with WB containing 1% bovine serum albumin was added to the wells, and after the reaction for 1 hour, the wells were washed 5 times with WB. Goat anti-rabbit IgG-HRP (Zymed) diluted 1,000 times with WB containing 1% bovine serum albumin was added to the wells as the secondary detection antibody and the mixture was reacted for 1 hour, and then the wells were washed 5 times with WB. An OPD (o-phenylenediamine) solution (1 mg/ml OPD, Sigma), 5.1 g/l of citric acid monohydrate, and 18.4 g/l of Na2HPO4.12H2O were added to the wells to develop color, […] was added 5 minutes later to terminate the color development, and absorbance was measured at 490 nm.
# The inhibition ratio was calculated as follows. Inhibition ratio(%)=[…]
# Further, the inhibition ratio was calculated with changing the concentration of the test compound, and a compound concentration providing an inhibition ratio of 50% was obtained as IC50.
row,SMILES,IC50 [µM]
1,"N[C@H]1CCN(S(=O)(=O)c2cccc3cncc(Br)c23)C1 [Example 1-1, (S)-3-Amino-1-(4-bromo-5-isoquinolinesulfonyl)pyrrolidine]",< 1
2,"N[C@@H]1CCN(S(=O)(=O)c2cccc3cncc(Br)c23)C1 [Example 1-2, (R)-3-Amino-1-(4-bromo-5-isoquinolinesulfonyl)pyrrolidine]",< 1
3,O=S(=O)(c1cccc2cncc(Br)c12)N1CC[C@H](NCc2ccccc2)C1 [Example 1-6],< 1
4,COc1ccc(CN[C@H]2CCN(S(=O)(=O)c3cccc4cncc(Br)c34)C2)cc1 [Example 1-7],< 1
5,O=S(=O)(c1cccc2cncc(Br)c12)N1CC[C@H](NCc2ccc(O)cc2)C1 [Example 1-11],< 1
6,O=S(=O)(c1cccc2cncc(Br)c12)N1CC[C@H](NCCc2ccccc2)C1 [Example 1-13],< 1
7,O=S(=O)(c1cccc2cncc(Br)c12)N1CC[C@H](NCc2ccoc2)C1 [Example 1-14],< 1
8,Cc1nc(CN[C@H]2CCN(S(=O)(=O)c3cccc4cncc(Br)c34)C2)c[nH]1 [Example 1-19],1 to 3
9,Cn1cccc1CN[C@H]1CCN(S(=O)(=O)c2cccc3cncc(Br)c23)C1 [Example 1-20],< 1
10,NCCN[C@H]1CCN(S(=O)(=O)c2cccc3cncc(Br)c23)C1 [Example 1-31],< 1
11,O=S(=O)(c1cccc2cncc(Br)c12)N1CC[C@H](NC2CCC(O)CC2)C1 (stereo partly drawn) [Example 1-33],1 to 3
12,O=S(=O)(c1cccc2cncc(Br)c12)N1CC[C@H](NCc2ccc3c(c2)OCCO3)C1 [Example 1-38],< 1
13,"N[C@H]1CCN(S(=O)(=O)c2cccc3c(O)ncc(Br)c23)C1 [Example 7-1, (S)-3-Amino-1-(1-hydroxy-4-bromo-5-isoquinolinesulfonyl)pyrrolidine]",< 1
14,CCCN[C@H]1CCN(S(=O)(=O)c2cccc3cncc(C)c23)C1 [Example 8-5],< 1
15,Cc1cncc2cccc(S(=O)(=O)N3CC[C@H](NCc4ccccc4)C3)c12 [Example 8-6],< 1
16,COc1ccc(CN[C@H]2CCN(S(=O)(=O)c3cccc4cncc(C)c34)C2)cc1 [Example 8-7],< 1
17,Cc1cncc2cccc(S(=O)(=O)N3CC[C@H](NCc4ccc5c(c4)OCO5)C3)c12 [Example 8-8],< 1
18,Cc1cncc2cccc(S(=O)(=O)N3CC[C@H](NCc4ccc([N+](=O)[O-])cc4)C3)c12 [Example 8-9],1 to 3
19,Cc1ccc(CN[C@H]2CCN(S(=O)(=O)c3cccc4cncc(C)c34)C2)o1 [Example 8-16],1 to 3
20,Cc1ccc(CN[C@H]2CCN(S(=O)(=O)c3cccc4cncc(C)c34)C2)s1 [Example 8-18],1 to 3
21,Cc1cncc2cccc(S(=O)(=O)N3CC[C@H](NCC#N)C3)c12 [Example 8-73],1 to 3
22,"NCC1CCN(S(=O)(=O)c2cccc3cncc(Cl)c23)C1 (stereo not drawn) [Example 44, 3-(Aminomethyl)-1-(4-chloro-5-isoquinolinesulfonyl)pyrrolidine]",< 1
23,"NCC1CCN(S(=O)(=O)c2cccc3cncc(Cl)c23)CC1 [Example 52, 4-(Aminomethyl)-1-(4-chloro-5-isoquinolinesulfonyl)piperidine]",< 1

# The next lines start with the values.
row,IC50 [µM],SMILES
1,1 to 3,C#Cc1cncc2cccc(S(=O)(=O)N3CC[C@H](NCc4ccco4)C3)c12 [Example 10-14]
2,1 to 3,C#Cc1cncc2cccc(S(=O)(=O)N3CC[C@H](NC4CCOCC4)C3)c12 [Example 10-31]
3,< 1,O=S(=O)(c1cccc2cncc(F)c12)N1CC[C@H](NCc2ccc3c(c2)OCO3)C1 [Example 18-8]
4,1 to 3,Cc1ccc(CN[C@H]2CCN(S(=O)(=O)c3cccc4cncc(F)c34)C2)o1 [Example 18-16]
5,1 to 3,CCN[C@H]1CCN(S(=O)(=O)c2cccc3cncc(Cl)c23)C1 [Example 19-4]
6,< 1,O=S(=O)(c1cccc2cncc(Cl)c12)N1CC[C@H](NCc2ccc3c(c2)OCO3)C1 [Example 19-8]
7,1 to 3,O=S(=O)(c1cccc2cncc(Cl)c12)N1CC[C@H](NCc2ccco2)C1 [Example 19-14]
8,1 to 3,O=S(=O)(c1cccc2cncc(Cl)c12)N1CC[C@H](NCc2cccs2)C1 [Example 19-17]
9,1 to 3,Cn1cccc1CN[C@H]1CCN(S(=O)(=O)c2cccc3cncc(Cl)c23)C1 [Example 19-21]
10,< 1,"Nc1ncc(Br)c2c(S(=O)(=O)N3CC[C@H](N)C3)cccc12 [Example 41-1, (S)-3-Amino-1-(1-amino-4-bromo-5-isoquinolinesulfonyl)pyrrolidine]"
11,1 to 3,"N[C@H]1CCN(S(=O)(=O)c2cccc3cncc(C(F)(F)F)c23)C1 [Example 47-1, (S)-3-Amino-1-(4-trifluoromethyl-5-isoquinolinesulfonyl)pyrrolidine]"
12,1 to 3,"CS(=O)(=O)N[C@H]1CCN(S(=O)(=O)c2cccc3cncc(Cl)c23)C1 [Example 50-1, (S)-3-(Methanesulfonylamino)-1-(4-chloro-5-isoquinolinesulfonyl)pyrrolidine]"
